Laboratory results as given in article PMC7822874, “Chemoprotective antimalarials identified through quantitative high-throughput screening of Plasmodium blood and liver stage parasites” (Scientific Reports, 2021).
Where two headings read alike, the source gives them in different places.

Tests used:
[1] = system: luciferase-expressing P. berghei liver stage parasites in HepG2 cells; assay: Inhibition of liver-stage development assay (ILSDA), Method 2 (WRAIR, 96-well); type: cell-based, Plasmodium berghei; conditions: for Max Resp (signal direction of the dose response): Decrease = decreasing P. berghei viability with dose, Increase = increasing signal, Inactive = no dose response; for Activity direction (Decrease / Inactive): P. berghei liver stage
in vitro = conditions: human, HepG2-A16-CD81EGFP cells, uninfected
[2] = system: P. berghei-ANKA-GFP-LucCON liver stage parasites in HepG2-A16-CD81EGFP cells; assay: P. berghei liver stage Pb-Luc assay, Method 1 (UCSD, 1536-well); type: cell-based, Plasmodium berghei; conditions: Method 1; for Max Resp (signal direction of the dose response): Decrease = decreasing P. berghei viability with dose, Increase = increasing signal, Inactive = no dose response
[3] = system: Plasmodium falciparum Dd2 asexual blood stage parasites; assay: microbe, parasite or virus in culture; set-up: species or system Plasmodium falciparum Dd2 in human erythrocytes; single determination (one 11-point concentration-response curve); conditions: Plasmodium falciparum, DD2, Erythrocyte, 72 h; read-out: AC50
[4] = Plasmodium berghei, Hill fit, 50% of maximum activity response, read-out: AC50
[5] = Plasmodium berghei, log10 of molar AC50 from Hill fit, read-out: Log AC50 (converted)
[6] = Hill fit, 50% of maximum activity response, read-out: AC50
[7] = log10 of molar AC50 from Hill fit
[8] = Plasmodium berghei, HepG2, P. berghei liver stage, Method 2, dose response, read-out: AC50
[9] = Plasmodium berghei, HepG2, P. berghei liver stage, Method 2, dose response, read-out: Log AC50 (converted)
[10] = Plasmodium berghei, HepG2, Method 2, Hill fit, 50% of maximum activity response, read-out: AC50
[11] = Plasmodium berghei, HepG2, Method 2, log10 of molar AC50 from Hill fit, read-out: Log AC50 (converted)

Row | Structure (SMILES) | Max Resp (signal direction of the dose response) ([1]; Method 2) | AC50 [2, 4] [nM] | AC50 [2, 5] [nM] | AC50 [3] [nM] | Activity direction (Decrease / Inactive) ([1]; Method 2, dose response) | Max Resp (signal direction of the dose response) [2] | AC50 [1, 10] [nM] | AC50 [1, 11] [nM] | other results
1 | c1ccc(CNc2nc(NCc3ccccc3)c3ccccc3n2)cc1 [NCGC00347066-01] | Inactive |  |  |  |  |  |  |  | viability at 48 h, 1 µM (in vitro): 83%; viability at 48 h, 3 µM (in vitro): 72%
2 | COc1ccc2nc(C[C@@H]3C[C@@H](C(C)C)[C@H](CNCc4ccccc4O)C=C3C)[nH]c2n1 [NCGC00391280-01] | Inactive | 1580 | 1580 | 243 |  |  |  |  | 
3 | CCCCN(CC)CCNC(=O)c1cc2c(-c3ccc(Cl)cc3)nn(C)c2s1 [NCGC00108995] | Inactive |  |  |  |  |  |  |  | viability at 66 h (in vitro): 102%
4 | COc1ccc(-c2ccc3ncc(Nc4ccncc4)n3n2)cc1OC [NCGC00412536-01] | Inactive | 2240 | 2240 | 4850 |  |  |  |  | 
5 | Oc1ccccc1CN1CC(CNc2cccnc2)C2(C1)CN(c1ccccc1)C2 (centres unmarked) [NCGC00415924-01] |  |  |  | 10900 | Inactive |  |  |  | 
6 | COc1ccc(-n2nc(C)c([C@@H]3C=C[C@@H](NCc4ccc(F)cc4)C3)c2C)cc1 [NCGC00421412-01] |  | 1580 | 1580 | 1370 | Decrease | Decrease |  |  | AC50 [2, 6]: 1780 nM; Log AC50 (M) [2, 7]: -5.750 M; AC50 [1, 8]: 3980 nM; AC50 [1, 9]: 3980 nM
7 | Cc1cccc(N(C)c2nc3ccccc3c3nnc(C)n23)c1 [NCGC00126108-01] | Decrease | 316 | 316 | 1060 |  | Decrease |  |  | AC50 ([1]; Method 2, Hill fit, 50% of maximum activity response, read-out: AC50): 447 nM; Log AC50 (M) ([1]; Method 2, log10 of molar AC50 from Hill fit): -6.350 M
8 | CC(C)c1ccc(CN2CC(CNc3cccnc3)C3(C2)CN(c2ccccc2)C3)cc1 (centres unmarked) [NCGC00415809-01] |  |  |  | 4850 | Inactive |  |  |  | 
9 | Clc1cnccc1CN1CC(CNc2ccccc2)C2(C1)CN(c1ccccc1)C2 (centres unmarked) [NCGC00416018-01] |  |  |  | 13700 | Inactive |  |  |  | 
10 | COc1ccc2nc(C)cc(Nc3ccc(Cl)c(Cl)c3)c2c1 [NCGC00098192-01] | Decrease |  |  | 2660 |  | Inactive | 398 | 398 | 
11 | COc1ccc(-n2nc(C)c([C@@H]3C=C[C@@H](NCc4ccc(N(C)C)cc4)C3)c2C)cc1 [NCGC00394616-01] | Decrease | 1410 | 1410 | 4330 |  | Decrease | 2820 | 2820 | AC50 [2, 6]: 1580 nM; Log AC50 (M) [2, 7]: -5.800 M
12 | COc1cccc(NC(=O)c2cccc3c(=O)c4c([nH]c23)CCCC4)c1 [NCGC00119838-01] | Increase |  |  | 2990 |  | Inactive |  |  | 
13 | CC1CCc2cc(F)ccc2N1C(=O)CSc1nnc2c(n1)[nH]c1ccccc12 (centres unmarked) [MLS000557140-01] | Decrease |  |  | 7500 |  |  | 5620 | 5620 | 
14 | O=C(Nc1ccc2c(N3CCCCC3)ncnc2c1)c1cc(F)cc(F)c1 [NCGC00425525-01] |  | 1410 | 1410 | 1880 | Decrease |  |  |  | AC50 [1, 8]: 398 nM; AC50 [1, 9]: 398 nM
15 | O=[S+]([O-])(NCC1CN(Cc2ccc(O)cc2)CC12CN(c1ccccc1)C2)c1ccccc1 (centres unmarked) [NCGC00415939-01] |  |  |  | 6680 | Inactive |  |  |  | 
16 | CCCCCCCc1c(C)[nH]c(N2CCOCC2)nc1=O [MLS000531187-01] | Decrease |  |  | 5310 |  |  | 5620 | 5620 | 
17 | CCC(CC)c1cc([C@H]2CN3CC[C@H]2C[C@@H]3CNC(C)=O)nc(-c2ccncc2)n1 [NCGC00394634-01] | Decrease |  |  | 15300 |  | Decrease | 355 | 355 | 
18 | Cc1ccc2[nH]c(-c3ccccc3)cc(=O)c2c1 [MLS000112473-01] | Decrease |  |  | 4730 |  |  | 5620 | 5620 | 
